Legend:
[1] = refractive index (Na D-line) (dimensionless); conditions: 101.33 kPa, Liquid
[2] = 101.33 kPa, Liquid
[3] = refractive index (Na D-line) (dimensionless); xn = mol fraction of the nth substance listed; conditions: 101.33 kPa, Liquid
[4] = xn = mol fraction of the nth substance listed; conditions: 101.33 kPa, Liquid

CCOC(=O)c1ccccc1C(=O)OCC [diethyl phthalate]
Conditions | mass density, 298.15 K [kg/m3] | mass density, 303.15 K [kg/m3] | mass density, 308.15 K [kg/m3] | refractive index, 298.15 K | refractive index, 303.15 K | refractive index, 308.15 K | speed of sound, 298.15 K [m/s] | viscosity, 298.15 K [mPa·s] | viscosity, 303.15 K [mPa·s] | viscosity, 308.15 K [mPa·s]
[1] | – | – | – | 1.5001 | 1.4978 | 1.4958 | – | – | – | –
[2] | 1115.1 | 1110.2 | 1105.6 | – | – | – | 1446 | 7.926 | 6.129 | 4.893

C1COCCO1 [1,4-dioxane] + CCOC(=O)c1ccccc1C(=O)OCC
x1 = 1
Conditions | mass density, 298.15 K [kg/m3] | mass density, 303.15 K [kg/m3] | mass density, 308.15 K [kg/m3] | refractive index, 298.15 K | refractive index, 303.15 K | refractive index, 308.15 K | speed of sound, 298.15 K [m/s] | viscosity, 298.15 K [mPa·s] | viscosity, 303.15 K [mPa·s] | viscosity, 308.15 K [mPa·s]
[3] | – | – | – | 1.4202 | 1.417 | 1.4144 | – | – | – | –
[4] | 1027.6 | 1021.9 | 1016.2 | – | – | – | 1347 | 1.167 | 1.069 | 0.984

C1COCCO1 [1,4-dioxane] + CCCCCCCCOC(=O)c1ccccc1C(=O)OCCCCCCCC
x1 = 1
Conditions | mass density, 298.15 K [kg/m3] | mass density, 303.15 K [kg/m3] | mass density, 308.15 K [kg/m3] | refractive index, 298.15 K | refractive index, 303.15 K | refractive index, 308.15 K | speed of sound, 298.15 K [m/s] | viscosity, 298.15 K [mPa·s] | viscosity, 303.15 K [mPa·s] | viscosity, 308.15 K [mPa·s]
[3] | – | – | – | 1.4202 | 1.417 | 1.4144 | – | – | – | –
[4] | 1027.6 | 1021.9 | 1016.2 | – | – | – | 1348 | 1.166 | 1.069 | 0.984

C1COCCO1 [1,4-dioxane] + CCOC(=O)C(=O)OCC
x1 = 1
Conditions | mass density, 298.15 K [kg/m3] | mass density, 303.15 K [kg/m3] | mass density, 308.15 K [kg/m3] | refractive index, 298.15 K | refractive index, 303.15 K | refractive index, 308.15 K | speed of sound, 298.15 K [m/s] | viscosity, 298.15 K [mPa·s] | viscosity, 303.15 K [mPa·s] | viscosity, 308.15 K [mPa·s]
[3] | – | – | – | 1.4202 | 1.417 | 1.4144 | – | – | – | –
[4] | 1027.6 | 1021.9 | 1016.2 | – | – | – | 1348 | 1.167 | 1.069 | 0.984

CCOC(=O)C(=O)OCC [diethyl ethanedioate] + C1COCCO1
Conditions | mass density, 298.15 K [kg/m3] | mass density, 303.15 K [kg/m3] | mass density, 308.15 K [kg/m3] | refractive index, 298.15 K | refractive index, 303.15 K | refractive index, 308.15 K | speed of sound, 298.15 K [m/s] | viscosity, 298.15 K [mPa·s] | viscosity, 303.15 K [mPa·s] | viscosity, 308.15 K [mPa·s]
[3], x2 = 0 | – | – | – | 1.4084 | 1.406 | 1.4034 | – | – | – | –
[3], x2 = 0.1094 | – | – | – | 1.4092 | 1.4068 | 1.4043 | – | – | – | –
[3], x2 = 0.2069 | – | – | – | 1.4101 | 1.4077 | 1.4052 | – | – | – | –
[3], x2 = 0.3098 | – | – | – | 1.4112 | 1.4087 | 1.4062 | – | – | – | –
[3], x2 = 0.4009 | – | – | – | 1.4119 | 1.4094 | 1.407 | – | – | – | –
[3], x2 = 0.4975 | – | – | – | 1.4129 | 1.4106 | 1.4084 | – | – | – | –
[3], x2 = 0.5978 | – | – | – | 1.4144 | 1.4118 | 1.409 | – | – | – | –
[3], x2 = 0.7008 | – | – | – | 1.4157 | 1.4132 | 1.4106 | – | – | – | –
[3], x2 = 0.7971 | – | – | – | 1.417 | 1.4145 | 1.412 | – | – | – | –
[3], x2 = 0.8976 | – | – | – | 1.4183 | 1.4158 | 1.4132 | – | – | – | –
[4], x2 = 0 | 1072.9 | 1066.2 | 1060.8 | – | – | – | 1276 | 1.759 | 1.581 | 1.437
[4], x2 = 0.1094 | 1070.9 | 1064.2 | 1058.1 | – | – | – | 1284 | 1.69 | 1.539 | 1.388
[4], x2 = 0.2069 | 1067.5 | 1061.4 | 1055.3 | – | – | – | 1292 | 1.631 | 1.487 | 1.343
[4], x2 = 0.3098 | 1064.4 | 1058.3 | 1052.1 | – | – | – | 1301 | 1.566 | 1.428 | 1.291
[4], x2 = 0.4009 | 1061.1 | 1055 | 1048.9 | – | – | – | 1310 | 1.505 | 1.375 | 1.245
[4], x2 = 0.4975 | 1057.3 | 1051.1 | 1045 | – | – | – | 1320 | 1.44 | 1.316 | 1.193
[4], x2 = 0.5978 | 1052.8 | 1046.7 | 1040.6 | – | – | – | 1329 | 1.375 | 1.259 | 1.143
[4], x2 = 0.7008 | 1047.7 | 1041.5 | 1035.4 | – | – | – | 1337 | 1.312 | 1.203 | 1.094
[4], x2 = 0.7971 | 1042.1 | 1036.1 | 1029.9 | – | – | – | 1343 | 1.259 | 1.157 | 1.055
[4], x2 = 0.8976 | 1035.5 | 1029.5 | 1023.6 | – | – | – | 1347 | 1.206 | 1.111 | 1.016

CCCCCCCCOC(=O)c1ccccc1C(=O)OCCCCCCCC [dioctyl 1,2-benzenedicarboxylate] + C1COCCO1
Conditions | mass density, 298.15 K [kg/m3] | mass density, 303.15 K [kg/m3] | mass density, 308.15 K [kg/m3] | refractive index, 298.15 K | refractive index, 303.15 K | refractive index, 308.15 K | speed of sound, 298.15 K [m/s] | viscosity, 298.15 K [mPa·s] | viscosity, 303.15 K [mPa·s] | viscosity, 308.15 K [mPa·s]
[3], x2 = 0 | – | – | – | 1.485 | 1.4831 | 1.481 | – | – | – | –
[3], x2 = 0.1337 | – | – | – | 1.4836 | 1.4819 | 1.4804 | – | – | – | –
[3], x2 = 0.2243 | – | – | – | 1.4822 | 1.4798 | 1.4775 | – | – | – | –
[3], x2 = 0.3207 | – | – | – | 1.4812 | 1.4784 | 1.4756 | – | – | – | –
[3], x2 = 0.4226 | – | – | – | 1.4781 | 1.4771 | 1.4762 | – | – | – | –
[3], x2 = 0.5169 | – | – | – | 1.4733 | 1.4717 | 1.47 | – | – | – | –
[3], x2 = 0.6054 | – | – | – | 1.4692 | 1.4673 | 1.4652 | – | – | – | –
[3], x2 = 0.7161 | – | – | – | 1.463 | 1.461 | 1.46 | – | – | – | –
[3], x2 = 0.8031 | – | – | – | 1.4566 | 1.4541 | 1.4516 | – | – | – | –
[3], x2 = 0.9017 | – | – | – | 1.4422 | 1.4401 | 1.4379 | – | – | – | –
[4], x2 = 0 | 980.7 | 977.1 | 973.1 | – | – | – | 1421 | 43.03 | 30.18 | 21.88
[4], x2 = 0.1337 | 982.2 | 978.3 | 974.4 | – | – | – | 1416 | 32.58 | 24.97 | 17.36
[4], x2 = 0.2243 | 983.4 | 979.4 | 975.2 | – | – | – | 1412 | 26.39 | 20.41 | 14.44
[4], x2 = 0.3207 | 984.8 | 980.5 | 976.4 | – | – | – | 1406 | 20.73 | 16.1 | 11.47
[4], x2 = 0.4226 | 986.5 | 982.2 | 977.8 | – | – | – | 1400 | 15.4 | 12.12 | 8.836
[4], x2 = 0.5169 | 988.4 | 983.9 | 979.6 | – | – | – | 1394 | 11.02 | 8.852 | 6.689
[4], x2 = 0.6054 | 990.7 | 986.3 | 981.9 | – | – | – | 1388 | 8.056 | 6.528 | 5.001
[4], x2 = 0.7161 | 995 | 990.5 | 985.9 | – | – | – | 1379 | 4.947 | 4.096 | 3.246
[4], x2 = 0.8031 | 1000.2 | 995.4 | 990.6 | – | – | – | 1372 | 3.213 | 2.717 | 2.222
[4], x2 = 0.9017 | 1009.9 | 1004.6 | 999.5 | – | – | – | 1361 | 1.863 | 1.612 | 1.361

Reference: the NIST ThermoML archive (doi:10.1021/je0301489)
